Measured values as given in US6624146B1, “Pharmaceutical compositions containing fibroblast growth factor-related peptides” (Agency of Industrial Science and Technology, priority 1998, dated 2003).

Tests used:
[1] = Weight-reducing effect: change in body weight the day after injection into the cerebral ventricles; assay type: in vivo, Wistar rats
Experimental: This peptide was dissolved in physiological saline to prepare a 2.6 pmol/μl peptide-containing injection solution. Five μl of the injection solution (containing 13 pmol peptide) was administered into the cerebral ventricles of 10-week-old male Wistar rats, which were weighed on the next day to calculate amounts of change in weight prior to and subsequent to injection.
On the other hand, 5 μl physiological saline was administered to rats as a control in the same manner as described above, and 2.6 pmol/μl FGF-containing injection solution was administered to rats as a comparative example in the same manner as described above. Each rat was weighed on the next day to calculate amounts of change in weight prior to and subsequent to injection.

[2] = Food and water intake inhibitory effects 12 hours after injection into the cerebral ventricles; assay type: in vivo, Wistar rats
Experimental: In the same manner as in example 1, the peptide […]Try-Lys-Lys-Pro-Lys-Leu (SEQ ID NO:3) was synthesized. This peptide was dissolved in physiological saline to prepare a 2.6 pmol/μl peptide-containing injection solution. Five μl of the injection solution (containing 13 pmol peptide) was administered in the cerebral ventricles of 10-week old male Wistar rats, and the food and water intake level were measured 12 hours after administration to compare with those in the same period of the day prior to administration.
On the other hand, 5 μl physiological saline was administered as a control in the same manner as described above, and 2.6 pmol/μl FGF-containing injection solution was administered as a comparative example in the same manner as described above. Food and water intake levels were measured respectively 12 hours after administration, and were compared to those in the same period of the day prior to administration to calculate amounts of change in food and water intake.

[3] = 13 pmol into the cerebral ventricles, 12 hours, vs saline control
[4] = 10-week-old male Wistar rats, 13 pmol/5 μl into the cerebral ventricles, 12 hours after administration vs same period of the day prior

## Ala-Ala-Val-Ala-Leu-Leu-Pro-Ala-Val-Leu-Leu-Ala-Leu-Leu-Ala-Val-Ala-Ala-Ala-Asn-Try-Lys-Lys-Pro-Lys-Leu (AAVALLPAVLLALLAVAAANYKKPKL; Derivative of partial peptide of fibroblast growth factors)
[1]; 13 pmol into the cerebral ventricles, next day, vs saline control
  Weights of the rats compared to physiological saline control (in words): significantly reduced
[1]; 10-week-old male Wistar rats, 13 pmol/5 μl into the cerebral ventricles, weighed on the next day, prior vs subsequent to injection
  Amount of change in weight: -5.3 g
[2]; [3]
  Food intake level compared to physiological saline control (in words): significantly reduced
  Water intake level compared to physiological saline control (in words): significantly reduced
[2]; [4]
  Amount of change in food intake: -4.8 g
  Amount of change in water intake: -8.4 mL
